The values below are quoted from earlier work in US20230416754A1, “SINA MOLECULES, METHODS OF PRODUCTION AND USES THEREOF” (PHYZAT BIOPHARMACEUTICALS, LDA, priority 2020, published 2023).

In this series the test system is mice.

Read-outs that look alike come from different tables or passages of the source.

With `CC(C)(C)NC[C@H](O)COc1nsnc1N1CCOCC1` [Timolol, timolol], the IOP entry is, setting by setting: (reserpine-treated animals) “did not significantly affect IOP”; (saline control treated mice) “significantly reduced IOP”.
